Several values for one entry are separate records, joined by “and”; a condition that tells them apart may be missing. Equal values may be shown once. Toxic doses and inconclusive results are not listed. No stated cut-off is given here; in the data, active means T/C of 150% or more; inactive means T/C below 125%.
Test system: L1210 leukemia ip in BDF1 mice, survival T/C
Experiment: NCI In Vivo Anticancer Drug Screen. Data for tumor model L1210 Leukemia (intraperitoneal) in B6D2F1 (BDF1) mice
Conditions: endpoint: mean survival time, higher = longer survival
Method in brief: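 Value reflects the ratio of survival in compound-treated mice to survival in vehicle-treated controls, with both groups carrying the same transplanted tumor.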

[1] = dose: 25.0 mg/kg/injection, schedule: Q01DX009 (ip), vehicle: saline with Tween-80
[2] = dose: 50.0 mg/kg/injection, schedule: Q01DX009 (ip), vehicle: saline with Tween-80
[3] = dose: 100.0 mg/kg/injection, schedule: Q04DX003 (ip), vehicle: saline
[4] = dose: 100.0 mg/kg/injection, schedule: Q04DX003 (ip), vehicle: saline with Tween-80
[5] = dose: 200.0 mg/kg/injection, schedule: Q04DX003 (ip), vehicle: saline with Tween-80
[6] = dose: 400.0 mg/kg/injection, schedule: Q04DX003 (ip), vehicle: saline with Tween-80
[7] = dose: 100.0 mg/kg/injection, schedule: Q04DX002 (ip), vehicle: Klucel (hydroxypropylcellulose) (HPC)
[8] = dose: 200.0 mg/kg/injection, schedule: Q04DX002 (ip), vehicle: Klucel (hydroxypropylcellulose) (HPC)
[9] = dose: 400.0 mg/kg/injection, schedule: Q04DX002 (ip), vehicle: Klucel (hydroxypropylcellulose) (HPC)

Measured: T/C

CCCC(C(N)=O)N(CCO)CCO (stereo unspecified)
inactive: dose: 100.0 mg/kg/injection, schedule: Q04DX002 (ip), vehicle: saline 90 % of control | dose: 200.0 mg/kg/injection, schedule: Q04DX002 (ip), vehicle: saline 90 % of control | dose: 400.0 mg/kg/injection, schedule: Q04DX002 (ip), vehicle: saline 90 % of control

c1ccc2c(c1)N=C1CCCC3CCCC123 (stereo unspecified)
inactive: dose: 100.0 mg/kg/injection, schedule: Q## X003 (ip), vehicle: saline 98 % of control | dose: 200.0 mg/kg/injection, schedule: Q## X003 (ip), vehicle: saline 104 % of control | dose: 400.0 mg/kg/injection, schedule: Q## X003 (ip), vehicle: saline 96 % of control

CCOC(=O)C1C2OC(=O)C(C(=O)C2P2(=O)OCCN2CCCl)C1c1ccc(OC(C)=O)cc1 (stereo unspecified)
inactive: dose: 100.0 mg/kg/injection, schedule: Q04DX003 (ip), vehicle: Klucel (hydroxypropylcellulose) (HPC) 108 % of control | dose: 200.0 mg/kg/injection, schedule: Q04DX003 (ip), vehicle: Klucel (hydroxypropylcellulose) (HPC) 95 % of control | dose: 400.0 mg/kg/injection, schedule: Q04DX003 (ip), vehicle: Klucel (hydroxypropylcellulose) (HPC) 108 % of control

O=C1c2c(c(O)c3ccccc3c2O)C(=O)C2CC=CCC12 (stereo unspecified)
inactive: [1] 105 % of control | [2] 110 % of control | dose: 100.0 mg/kg/injection, schedule: Q01DX009 (ip), vehicle: saline with Tween-80 104 % of control | dose: 200.0 mg/kg/injection, schedule: Q01DX009 (ip), vehicle: saline with Tween-80 104 % of control | dose: 400.0 mg/kg/injection, schedule: Q01DX009 (ip), vehicle: saline with Tween-80 104 % of control

CC(C)(C)[Se]C(=N)N
inactive: dose: 18.8 mg/kg/injection, schedule: Q01DX001 (ip), vehicle: saline with Tween-80 101 % of control | dose: 37.5 mg/kg/injection, schedule: Q01DX001 (ip), vehicle: saline with Tween-80 100 % of control | dose: 50.0 mg/kg/injection, schedule: Q01DX001 (ip), vehicle: saline with Tween-80 107 % of control | dose: 75.0 mg/kg/injection, schedule: Q01DX001 (ip), vehicle: saline with Tween-80 95 % of control

CCOCC[n+]1ccc(C)cc1
inactive: [3] 107 % of control | dose: 200.0 mg/kg/injection, schedule: Q04DX003 (ip), vehicle: saline 95 % of control

NCCc1cnc2ccccc2n1
inactive: dose: 25.0 mg/kg/injection, schedule: Q01DX009 (ip), vehicle: saline 95 % of control | dose: 50.0 mg/kg/injection, schedule: Q01DX009 (ip), vehicle: saline 97 % of control | dose: 100.0 mg/kg/injection, schedule: Q01DX009 (ip), vehicle: saline 96 % of control | [3] 98 % of control

COC(=O)c1ccccc1SSc1ccccc1C(=O)OC
inactive: [4] 95 % of control | [5] 102 % of control | [6] 102 % of control

CC(=O)Nc1ccc2ncccc2c1[N+](=O)[O-]
inactive: dose: 100.0 mg/kg/injection, schedule: Q01DX001 (ip), vehicle: other 102 % of control | dose: 200.0 mg/kg/injection, schedule: Q01DX001 (ip), vehicle: other 100 % of control | dose: 400.0 mg/kg/injection, schedule: Q01DX001 (ip), vehicle: other 100 % of control

COC(=O)C1=CO[C@@H](C)[C@@H]2Cn3ccc4c5ccccc5nc-4c3C[C@H]12
inactive: dose: 100.0 mg/kg/injection, schedule: Q01DX001 (ip), vehicle: saline 109 % of control | dose: 400.0 mg/kg/injection, schedule: Q01DX001 (ip), vehicle: saline 95 % of control

CCOC(=O)CNc1cccc(F)c1
inactive: [7] 101 % of control | [8] 108 % of control | [9] 105 % of control

Cc1cc(C(C)(C)CC(C)(C)C)ccc1O
inactive: dose: 100.0 mg/kg/injection, schedule: Q01DX009 (sc), vehicle: olive oil, sesame oil, peanut oil 100 % of control | dose: 100.0 mg/kg/injection, schedule: Q04DX003 (sc), vehicle: olive oil, sesame oil, peanut oil 110 % of control | dose: 200.0 mg/kg/injection, schedule: Q01DX009 (sc), vehicle: olive oil, sesame oil, peanut oil 100 % of control | dose: 200.0 mg/kg/injection, schedule: Q04DX003 (sc), vehicle: olive oil, sesame oil, peanut oil 101 % of control | dose: 400.0 mg/kg/injection, schedule: Q01DX009 (sc), vehicle: olive oil, sesame oil, peanut oil 96 % of control | dose: 400.0 mg/kg/injection, schedule: Q04DX003 (sc), vehicle: olive oil, sesame oil, peanut oil 105 % of control

Cc1ccc2sc(C)cc(=O)c2c1
inactive: dose: 100.0 mg/kg/injection, schedule: Q01DX001 (ip), vehicle: carboxymethylcellulose (CMC) 100 % of control | dose: 200.0 mg/kg/injection, schedule: Q01DX001 (ip), vehicle: carboxymethylcellulose (CMC) 100 % of control | dose: 400.0 mg/kg/injection, schedule: Q01DX001 (ip), vehicle: carboxymethylcellulose (CMC) 98 % of control

CCCCCC(C)NCC(C)O (stereo unspecified)
inactive: dose: 75.0 mg/kg/injection, schedule: Q01DX001 (ip), vehicle: acid diluted with saline 100 % of control

NC(N)=N/N=C(\C=N\N=C(N)N)c1ccc(-c2ccc(C(/C=N/N=C(N)N)=N\N=C(N)N)cc2)cc1
inactive: dose: 15.0 mg/kg/injection, schedule: Q01DX Z (oral), vehicle: saline 102 % of control | dose: 30.0 mg/kg/injection, schedule: Q01DX Z (oral), vehicle: saline 96 % of control | dose: 60.0 mg/kg/injection, schedule: Q01DX Z (oral), vehicle: saline 98 % of control | dose: 120.0 mg/kg/injection, schedule: Q01DX Z (oral), vehicle: saline 100 % of control

c1ccc(Cn2ccnn2)cc1
inactive: dose: 50.0 mg/kg/injection, schedule: Q01DX009 (ip), vehicle: Klucel (hydroxypropylcellulose) (HPC) 96 % of control | dose: 100.0 mg/kg/injection, schedule: Q01DX009 (ip), vehicle: Klucel (hydroxypropylcellulose) (HPC) 92 % of control | dose: 200.0 mg/kg/injection, schedule: Q01DX009 (ip), vehicle: Klucel (hydroxypropylcellulose) (HPC) 115 % of control

Cc1ccc([N+](=O)[O-])cc1NC(=O)NCCCl
inactive: [4] 90 % of control | [5] 90 % of control | [6] 92 % of control

CC1CN=C(c2ccc(NC(=O)Nc3ccc(NC(=O)c4ccc(C5=NCC(C)N5)cc4)cc3)cc2)N1 (stereo unspecified)
inactive: dose: 62.5 mg/kg/injection, schedule: Q01DX Z (oral), vehicle: water 97 % of control | dose: 125.0 mg/kg/injection, schedule: Q01DX Z (oral), vehicle: water 101 % of control | dose: 250.0 mg/kg/injection, schedule: Q01DX Z (oral), vehicle: water 100 % of control | dose: 500.0 mg/kg/injection, schedule: Q01DX Z (oral), vehicle: water 105 % of control

CC(C)=NOC(=O)Nc1ccc2c(c1)OCO2
inactive: [4] 109 % of control | [5] 97 % of control | [6] 101 % of control

O=C(/C=C/c1ccccc1)NC(=S)Nc1cccc2ccccc12
inactive: [1] 96 % of control and 90 % of control | [2] 94 % of control | dose: 100.0 mg/kg/injection, schedule: Q01DX001 (ip), vehicle: saline with Tween-80 93 % of control | dose: 100.0 mg/kg/injection, schedule: Q04DX002 (ip), vehicle: alcohol 87 % of control | [4] 86 % of control | dose: 200.0 mg/kg/injection, schedule: Q01DX001 (ip), vehicle: saline with Tween-80 97 % of control | dose: 200.0 mg/kg/injection, schedule: Q04DX002 (ip), vehicle: alcohol 97 % of control | [5] 100 % of control | dose: 400.0 mg/kg/injection, schedule: Q01DX001 (ip), vehicle: saline with Tween-80 93 % of control | dose: 400.0 mg/kg/injection, schedule: Q04DX002 (ip), vehicle: alcohol 93 % of control | [6] 105 % of control

Nc1nc(SCC(=O)c2ccc(F)cc2)sc1C(=O)c1ccc(F)cc1
inactive: [7] 100 % of control | [8] 112 % of control | [9] 100 % of control

From PubChem BioAssay AID248 (DTP/NCI, 2004)
